Experimental data published in US11304963B2, “Methods of medical treatment with SUR1-TRPM4 channel inhibitors” (BIOGEN CHESAPEAKE LLC, priority 2016, dated 2022).

What was measured:
[1] = system: cerebral edema-related side effects; test: Clinical trial of glyburide in patients undergoing CAR-T therapy, surgical excision of a brain tumor, and/or diagnosed with cerebral edema; type: in vivo, human; settings: 0.5-3.0 mg/day
Description: (§1) In one arm, glyburide is administered as a bolus followed by continuous infusion.
(§2) In a second arm, glyburide is administered via a transdermal patch or gel.
(§3) In a third arm, glyburide is administered via injection, e.g., intravenous infusion.
(§4) In a fourth arm, glyburide is administered orally.
The study duration is days up to weeks.
Plasma levels of glyburide are determined daily.
The control group is matched for age, gender, and pre-operative stage.
(§5) Each patient is monitored via blood sampling and MRI. A diagnostic contrast-enhanced MRI of the brain is performed prior to inclusion in the study.
(§6) The following comparisons are made:
(§7) Occurrence of one or more cerebral edema-related side effects: • Headache • Neck pain or stiffness • Nausea or vomiting • Dizziness • Irregular breathing • Vision loss or changes • Memory loss • Inability to walk • Difficulty speaking • Stupor • Seizures • Loss of consciousness

migraine = test: Clinical trial of glyburide for the prevention of migraine; type: in vivo, human; settings: patients with a history of migraine; after 12 weeks of treatment; 0.5-3.0 mg/day
Description: This is a randomized, double-blind, placebo-controlled, parallel Group, dose-ranging study to investigate the efficacy, safety and tolerability of glyburide for the prevention of migraine.
as §1, §2, §3, §4
The study duration is several days up to one week.
Number of migraine headache days during weeks 9-12 of the treatment period.
Change in Scores From Completeness of Response Survey (CORS) (Time Frame: Visit 1 (screening) and Visit 2 (study completion following 2-month treatment period)).
CORS scores for Pain (0-4), Associated Symptoms (0-4), Limbic/Affective Symptoms (0-5), and Speed of Return to Functionality (1-5), represent outcome measures that are relevant to patients. Higher scores represent better treatment efficacy.
The analysis compares CORS scores for usual treatment (pre-study) versus glyburide (study medication).

[2] = system: cerebral edema-related side effects; test: Clinical trial of glyburide in patients with brain tumors or metastasis undergoing radiation therapy; type: in vivo, human; settings: 0.5-3.0 mg/day
Description: as §1, §2, §3, §4
The study duration is weeks to months.
Plasma levels of glyburide are determined weekly.
The control group is matched for age, gender, and pre-radiation therapy stage.
as §5, §6, §7

[3] = Plasma pharmacokinetics of glyburide, bolus injection followed by 72 hours continuous infusion, healthy adult subjects; settings: for Metabolite exposure versus administered dose of RP-1127: 0.4 mg/day vs 3.0 mg/day; for Metabolite level as share of the glyburide steady-state concentration: on average; for Average plasma metabolite concentration: through 72.5 hours after the initial bolus injection
Description: The two groups are referred to as the 0.4 mg/day group and the 3.0 mg/day group, respectively.

subjects with LHI = test: Mortality study in 77 subjects with LHI given Cirara and/or tPA; type: in vivo, human; settings: Group 1: tPA and a placebo; 22 subjects with LHI; tPA within 4.5 hours of stroke onset
Description: As used herein, the term “placebo” refers to an ostensibly pharmaceutical formulation with no pharmaceutically active agent, or lacks the particular pharmaceutical agent of interest in a given study. In the examples disclosed herein, the placebo is lacking the SUR1-TRPM4 channel inhibitor. As used herein, the term “Cirara” refers to a commercially available intravenous formulation of glyburide. In this example, tPA was administered in accordance with current clinical guidelines for managing ischemic stroke within 4.5 hours of stroke onset (Jauch et al. 2013).
The adverse outcome examined in the study was death. This was for exemplary purposes only and is not intended to be limiting.

Compound | Cerebral edema-related side effects compared with the control group [1] | Migraine outcome measures compared with the placebo group (migraine) | Cerebral edema-related side effects compared with the control group [2] | Time plasma metabolite levels first detected after the initial bolus RP-1127 IV injection ([3]; 0.4 mg/day dose group) | Metabolite exposure versus administered dose of RP-1127 [3] | Time plasma metabolite levels first detected after the initial bolus RP-1127 IV injection ([3]; 3.0 mg/day dose group) | Metabolite level as share of the glyburide steady-state concentration [3] | Average plasma metabolite concentration ([3]; 0.4 mg/day dose group) | Average plasma metabolite concentration ([3]; 3.0 mg/day dose group) | Mortality Rate (subjects with LHI)
COc1ccc(Cl)cc1C(=O)NCCc1ccc(S(=O)(=O)NC(=O)NC2CCCCC2)cc1 [Glyburide, glyburide] | significantly reduced or inhibited | significantly improved | significantly reduced or inhibited |  |  |  |  |  |  | 
COc1ccc(Cl)cc1C(=O)NCCc1ccc(S(=O)(=O)NC(=O)NC2CCC(O)CC2)cc1 (centres unmarked) [M1] |  |  |  | 1 h | approximately proportional to the administered dose | 0.167 h | 18% |  |  | 
COc1ccc(Cl)cc1C(=O)NCCc1ccc(S(=O)(=O)NC(=O)NC2CCCC(O)C2)cc1 (centres unmarked) [M2] |  |  |  | 2 h | approximately proportional to the administered dose | 0.333 h | 6% | ≤ 0.19 ng/mL | ≤ 1.4 ng/mL | 
tPA: Tissue plasminogen activator, a class of strong blood clot dissolving medicines |  |  |  |  |  |  |  |  |  | 41%
